Data reported in patent publication US20250058000A1, “Treatment of Proliferative Disorders Using Antibodies to PSMA” (Cornell University, priority 2007, published 2025).

Key:
prostate cancer = conditions: patients after developing androgen-independence; taxane-based chemotherapy; cited from earlier work
LNCaP cells [1] = assay: Docetaxel inhibition of LNCaP cell growth at different folate concentrations (cell count); type: cell-based, human; conditions: 10 or 20 μg/ml docetaxel for 72 hours, cells counted after 1 week; FIG. 12
Protocol: Docetaxel (taxotere) at concentrations of 10 or 20 μg/ml was incubated with LNCaP cells for 72 hours and at different concentrations of folate supplied in the form of folic acid from culture medium. Cells were counted after 1 week. […] The open bar is the control without treatment with docetaxel, the speckled bars are cells treated with 10 ug/ml docetaxel together with the indicated concentration of folate, and the striped bars are cells treated with 20 ug/ml docetaxel together with the indicated concentration of folate. The indicated concentrations of folate are over and above the physiological level of folate provided by the folate present in fetal calf serum (for example, 12 nm folate represents 12 nm folate above the physiological concentration). […] It is likely that decreased folate availability to cancer cells would enhance the anti-tumor effect of other cytotoxic, cytostatic and hormonal.

PSMA expression, PC3 = assay: PSMA expression (J591 labeling, FACS) after three weeks in lowered-folate media; type: cell-based, human; conditions: folate lowered to 50 nM or less, vs standard media, FIG. 10
Protocol: (§1) According to the World Health Organization, physiological level of serum folate is 12 nmol/L. Standard tissue culture media contains approx 150× the concentration of folate found in human serum/plasma. […] FIGS. 5-11 show the PSMA expression levels of different cell lines were grown for three weeks in standard media (containing 150× physiological concentration of folate; lines 2), standard media with only 50 nM folate, or standard media with only 10 nM folate. The cells were labeled with anti-PSMA antibody J591 followed by a fluorescently labeled secondary antibody that recognizes J591. Lines 1 show the cells labeled with a negative isotype control antibody followed by the labeled secondary antibody.

PSMA expression, LNCaP = assay: as above; type: cell-based, human; conditions: folate lowered in the media, FIG. 11
Protocol: as §1

[2] = test system: PSMA expression, SK-RC-31; assay: as above; type: cell-based, human; conditions: folate lowered to 10 nM, vs standard media, FIG. 5
Protocol: as §1

[3] = test system: PSMA expression, SK-RC-39; assay: as above; type: cell-based, human; conditions: folate lowered to 10 nM, vs standard media, FIG. 7
Protocol: as §1

[4] = test system: PSMA expression, SK-RC-06; assay: as above; type: cell-based, human; conditions: folate lowered to 50 nM or less, vs standard media, FIG. 8
Protocol: as §1

[5] = test system: PSMA expression, SK-RC-42; assay: as above; type: cell-based, human; conditions: folate lowered to 10-50 nM, vs standard media, FIG. 6
Protocol: as §1

[6] = test system: PSMA expression, Cwr22rv1; assay: as above; type: cell-based, human; conditions: folate lowered to 10 nM, vs standard media, FIG. 9
Protocol: as §1

LNCaP cells [7] = assay: Effect of folic acid concentration on cell growth rate; type: cell-based, human; conditions: folate level increased above physiological; FIG. 3
Excerpt: Increasing the folate level above physiological can increase the growth rate by almost 2-fold. In cell lines that express PSMA (such as LNCaP), the same growth increase is also found if folate is provided in the form of ‘natural’ or dietary folate (e.g., polyglutamated folate) which is digested to monoglutamated folate by PSMA. The latter (monoglutamated folate) can cross the cell membrane whereas polyglutamated folate cannot. Anti-PSMA Antibody, J415, Inhibits PSMA tic Activity.

SMILES | Median survival (prostate cancer) | Cell killing/inhibition of growth depending on folate level (in words) (LNCaP cells [1]) | Increase in PSMA expression (PSMA expression, PC3) | Upregulation of PSMA expression (in words) (PSMA expression, LNCaP) | Increase in PSMA expression [2] | Increase in PSMA expression [3] | Increase in PSMA expression [4] | Increase in PSMA expression [5] | Increase in PSMA expression [6] | Increase of growth rate (LNCaP cells [7])
CC(=O)O[C@@]12CO[C@@H]1C[C@H](O)[C@@]1(C)C(=O)[C@H](O)C3=C(C)[C@@H](OC(=O)[C@H](O)[C@@H](NC(=O)OC(C)(C)C)c4ccccc4)C[C@@](O)([C@@H](OC(=O)c4ccccc4)[C@H]21)C3(C)C [docetaxel] | 19 months | decreasing folate levels increases the cell killing/inhibition of growth |  |  |  |  |  |  |  | 
Nc1nc2ncc(CNc3ccc(C(=O)N[C@@H](CCC(=O)O)C(=O)O)cc3)nc2c(=O)[nH]1 [folate, folic acid] |  |  | 400% | did not cause upregulation of PSMA expression | 250% | 250% | 225% | 650% | 950% | ~2 fold
